According to patent US12496298B2, “Natural killer cells” (Imperial College Innovations Limited, priority 2017, dated 2025):

Tests used:
Id2 = assay: RT-qPCR relative expression of Id2 in cultured HPCs; type: cell-based, mouse
Protocol: (§1) FIG. 8: HPCs were cultured with or without 5 μM SR8278 added on Day 2. At Day 3, 4 and 5, cells were harvested in order to quantify their relative […] by RT-qPCR. The graphs show relative expression of (A) E4bp4, (B) Id2 and (C) Eomes normalized to the housekeeping gene, Hprt.
(§2) HPCs isolated from a WT mouse were cultured as previously (FIG. 2) but the cells were harvested and analysed using RT-qPCR on Day 3, 4 and 5. The relative expression of the E4bp4, Id2 and Eomes genes was compared to the housekeeping gene, Hprt. At Day 4, E4bp4, Id2 and Eomes expression was higher in SR8278 treated samples when compared to the ‘No drug’ control (FIG. 8). The increase in E4bp4 expression disappeared at Day 5 but the increase of Id2 expression remained (FIG. 8B). The upregulation of E4bp4 and its downstream targets happens in a matter of hours and only stays high for a defined period of time.
(§3) RNA was extracted using Qiagen RNeasy Micro Kit according to the manufacture's protocol (Qiagen). Centrifugation was done at 8000 g for 15 seconds and the flow through discarded. Briefly, 350 μl of Buffer RLT+10% β-Mercaptoethanol were added to the harvested cells. […] The concentration of RNA in each sample was measured using Nanodrop, and all samples were diluted to the same working concentration. […]

E4bp4 = assay: RT-qPCR relative expression of E4bp4 in cultured HPCs; type: cell-based, mouse
Protocol: as §1, §2, §3

[1] = 5 μM added Day 2, harvested Day 4
[2] = 5 μM added Day 2, harvested Day 5

## CCOC(=O)C1Cc2ccccc2CN1C(=O)c1ccc(SC)s1 (stereo not shown) [SR8278, 1,2,3,4-Tetrahydro-2-[[5-(methylthio)-2-thienyl]carbonyl]-3-isoquinolinecarboxylic acid ethyl ester]
Id2; [1]
  Id2 expression relative to Hprt, compared to 'No drug' control: higher
Id2; [2]
  increase of Id2 expression: remained
E4bp4; [1]
  E4bp4 expression relative to Hprt, compared to 'No drug' control: higher
E4bp4; [2]
  increase in E4bp4 expression: disappeared
